Data as given in patent US20020111274A1, “1-alkyl-3-[1-(substituted phenyl) benzotriazol-6-yl] uracils” (BASF Aktiengesellschaft, priority 2000, published 2002).

Legend:
Design in all cases: scale not given here
ABUTH Velvetleaf [1] = experiment: Postemergence herbicidal evaluation, ABUTH; type: in vivo, Abutilon theophrasti, Medic.; settings: postemergence spray, rated about two-three weeks after treatment
Outline: (§1)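 Postemergence spray, 40 psi nozzle, on ~2-week seedlings. Carrier: acetone/water 80/20, 1.0% methylated seed oil; dose ~0.006–0.400 kg/ha. Scored visually at 2–3 weeks.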

AMBEL Ragweed, Common [2] = experiment: Postemergence herbicidal evaluation, AMBEL; type: in vivo, Ambrosia artemisifolia, L.; settings: postemergence spray, rated about two-three weeks after treatment
Outline: as §1

CASOB Sicklepod [3] = experiment: Postemergence herbicidal evaluation, CASOB; type: in vivo, Cassia obtusifolia, L.; settings: postemergence spray, rated about two-three weeks after treatment
Outline: as §1

[4] = system: CHEAL Lambsquarters, Common; experiment: Postemergence herbicidal evaluation, CHEAL; type: in vivo, Chenopodium album, L.; settings: postemergence spray, rated about two-three weeks after treatment
Outline: as §1

ECHOG Barnyardgrass [5] = experiment: Postemergence herbicidal evaluation, ECHOG; type: in vivo, Echinochloa crus-galli, (L.) Beau; settings: postemergence spray, rated about two-three weeks after treatment
Outline: as §1

GALAP Galium [6] = experiment: Postemergence herbicidal evaluation, GALAP; type: in vivo, Galium aparine; settings: postemergence spray, rated about two-three weeks after treatment
Outline: as §1

[7] = system: IPOHE Morningglory, Ivyleaf; experiment: Postemergence herbicidal evaluation, IPOHE; type: in vivo, Ipomoea hederacea, (L.) Jacq.; settings: postemergence spray, rated about two-three weeks after treatment
Outline: as §1

SETVI Foxtail, Green [8] = experiment: Postemergence herbicidal evaluation, SETVI; type: in vivo, Setaria viridis, (L.) Beau; settings: postemergence spray, rated about two-three weeks after treatment
Outline: as §1

GLXMAW Soybean, Williams [9] = experiment: Postemergence herbicidal evaluation, GLXMAW; type: in vivo, Glycine max, (L.) Merr. cv Williams; settings: postemergence spray, rated about two-three weeks after treatment
Outline: as §1

[10] = system: TRZAWR Wheat, Winter, cv Riband; experiment: Postemergence herbicidal evaluation, TRZAWR; type: in vivo, Triticum aestivum; settings: postemergence spray, rated about two-three weeks after treatment
Outline: as §1

ORYSAT Rice, Tebonnet [11] = experiment: Postemergence herbicidal evaluation, ORYSAT; type: in vivo, Oryza sativa, (L.); settings: postemergence spray, rated about two-three weeks after treatment
Outline: as §1

ZEAMX Corn, Field [12] = experiment: Postemergence herbicidal evaluation, ZEAMX; type: in vivo, Zea mays, L. (Sammel-Bezeichnung); settings: postemergence spray, rated about two-three weeks after treatment
Outline: as §1

ABUTH Velvetleaf [13] = experiment: Preemergence herbicidal evaluation, ABUTH; type: in vivo, Abutilon theophrasti, Medic.; settings: preemergence
Outline: (§2)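 Compound applied preemergence as an aqueous acetone spray onto freshly planted cups, dose equivalent approx. 0.013 to 0.800 kg/ha. Evaluation by rating at weeks 4–5.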

AMBEL Ragweed, Common [14] = experiment: Preemergence herbicidal evaluation, AMBEL; type: in vivo, Ambrosia artemisifolia, L.; settings: preemergence
Outline: as §2

CASOB Sicklepod [15] = experiment: Preemergence herbicidal evaluation, CASOB; type: in vivo, Cassia obtusifolia, L.; settings: preemergence
Outline: as §2

[16] = system: CHEAL Lambsquarters, Common; experiment: Preemergence herbicidal evaluation, CHEAL; type: in vivo, Chenopodium album, L.; settings: preemergence
Outline: as §2

ECHOG Barnyardgrass [17] = experiment: Preemergence herbicidal evaluation, ECHOG; type: in vivo, Echinochloa crus-galli, (L.) Beau; settings: preemergence
Outline: as §2

GALAP Galium [18] = experiment: Preemergence herbicidal evaluation, GALAP; type: in vivo, Galium aparine; settings: preemergence
Outline: as §2

[19] = system: IPOHE Morningglory, Ivyleaf; experiment: Preemergence herbicidal evaluation, IPOHE; type: in vivo, Ipomoea hederacea, (L.) Jacq.; settings: preemergence
Outline: as §2

SETVI Foxtail, Green [20] = experiment: Preemergence herbicidal evaluation, SETVI; type: in vivo, Setaria viridis, (L.) Beau; settings: preemergence
Outline: as §2

GLXMAW Soybean, Williams [21] = experiment: Preemergence herbicidal evaluation, GLXMAW; type: in vivo, Glycine max, (L.) Merr. cv Williams; settings: preemergence
Outline: as §2

[22] = system: TRZAWR Wheat, Winter, cv Riband; experiment: Preemergence herbicidal evaluation, TRZAWR; type: in vivo, Triticum aestivum; settings: preemergence
Outline: as §2

ORYSAT Rice, Tebonnet [23] = experiment: Preemergence herbicidal evaluation, ORYSAT; type: in vivo, Oryza sativa, (L.); settings: preemergence
Outline: as §2

ZEAMX Corn, Field [24] = experiment: Preemergence herbicidal evaluation, ZEAMX; type: in vivo, Zea mays, L. (Sammel-Bezeichnung); settings: preemergence
Outline: as §2

C#CCOC(=O)COc1ccc(C)c(-n2nnc3cc(F)c(-n4c(=O)cc(C(F)(F)F)n(C)c4=O)cc32)c1 [Example 36]
Postemergence herbicidal rating ABUTH (ABUTH Velvetleaf [1]; 0.008 kg/ha): 2.0
Postemergence herbicidal rating ABUTH (ABUTH Velvetleaf [1]; 0.016 kg/ha): 7.0
Postemergence herbicidal rating ABUTH (ABUTH Velvetleaf [1]; 0.032 kg/ha): 9.0
Postemergence herbicidal rating ABUTH (ABUTH Velvetleaf [1]; 0.062 kg/ha): 9.0
Postemergence herbicidal rating AMBEL (AMBEL Ragweed, Common [2]; 0.008 kg/ha): 2.0
Postemergence herbicidal rating AMBEL (AMBEL Ragweed, Common [2]; 0.016 kg/ha): 4.0
Postemergence herbicidal rating AMBEL (AMBEL Ragweed, Common [2]; 0.032 kg/ha): 5.0
Postemergence herbicidal rating AMBEL (AMBEL Ragweed, Common [2]; 0.062 kg/ha): 5.0
Postemergence herbicidal rating CASOB (CASOB Sicklepod [3]; 0.008 kg/ha): 0.0
Postemergence herbicidal rating CASOB (CASOB Sicklepod [3]; 0.016 kg/ha): 0.0
Postemergence herbicidal rating CASOB (CASOB Sicklepod [3]; 0.032 kg/ha): 0.0
Postemergence herbicidal rating CASOB (CASOB Sicklepod [3]; 0.062 kg/ha): 0.0
Postemergence herbicidal rating CHEAL ([4]; 0.008 kg/ha): 0.0
Postemergence herbicidal rating CHEAL ([4]; 0.016 kg/ha): 0.0
Postemergence herbicidal rating CHEAL ([4]; 0.032 kg/ha): 2.0
Postemergence herbicidal rating CHEAL ([4]; 0.062 kg/ha): 4.0
Postemergence herbicidal rating ECHCG (ECHOG Barnyardgrass [5]; 0.008 kg/ha): 0.0
Postemergence herbicidal rating ECHCG (ECHOG Barnyardgrass [5]; 0.016 kg/ha): 0.0
Postemergence herbicidal rating ECHCG (ECHOG Barnyardgrass [5]; 0.032 kg/ha): 0.0
Postemergence herbicidal rating ECHCG (ECHOG Barnyardgrass [5]; 0.062 kg/ha): 3.0
Postemergence herbicidal rating GALAP (GALAP Galium [6]; 0.008 kg/ha): 0.0
Postemergence herbicidal rating GALAP (GALAP Galium [6]; 0.016 kg/ha): 0.0
Postemergence herbicidal rating GALAP (GALAP Galium [6]; 0.032 kg/ha): 2.0
Postemergence herbicidal rating GALAP (GALAP Galium [6]; 0.062 kg/ha): 3.0
Postemergence herbicidal rating IPOHE ([7]; 0.008 kg/ha): 5.0
Postemergence herbicidal rating IPOHE ([7]; 0.016 kg/ha): 8.0
Postemergence herbicidal rating IPOHE ([7]; 0.032 kg/ha): 9.0
Postemergence herbicidal rating IPOHE ([7]; 0.062 kg/ha): 9.0
Postemergence herbicidal rating SETVI (SETVI Foxtail, Green [8]; 0.008 kg/ha): 4.0
Postemergence herbicidal rating SETVI (SETVI Foxtail, Green [8]; 0.016 kg/ha): 4.0
Postemergence herbicidal rating SETVI (SETVI Foxtail, Green [8]; 0.032 kg/ha): 7.0
Postemergence herbicidal rating SETVI (SETVI Foxtail, Green [8]; 0.062 kg/ha): 9.0
Postemergence herbicidal rating GLXMAW (GLXMAW Soybean, Williams [9]; 0.008 kg/ha): 3.5
Postemergence herbicidal rating GLXMAW (GLXMAW Soybean, Williams [9]; 0.016 kg/ha): 4.0
Postemergence herbicidal rating GLXMAW (GLXMAW Soybean, Williams [9]; 0.032 kg/ha): 4.0
Postemergence herbicidal rating GLXMAW (GLXMAW Soybean, Williams [9]; 0.062 kg/ha): 4.5
Postemergence herbicidal rating TRZAWR ([10]; 0.008 kg/ha): 4.5
Postemergence herbicidal rating TRZAWR ([10]; 0.016 kg/ha): 5.0
Postemergence herbicidal rating TRZAWR ([10]; 0.032 kg/ha): 6.0
Postemergence herbicidal rating TRZAWR ([10]; 0.062 kg/ha): 7.0
Postemergence herbicidal rating ORYSAT (ORYSAT Rice, Tebonnet [11]; 0.008 kg/ha): 1.5
Postemergence herbicidal rating ORYSAT (ORYSAT Rice, Tebonnet [11]; 0.016 kg/ha): 1.0
Postemergence herbicidal rating ORYSAT (ORYSAT Rice, Tebonnet [11]; 0.032 kg/ha): 2.5
Postemergence herbicidal rating ORYSAT (ORYSAT Rice, Tebonnet [11]; 0.062 kg/ha): 4.0
Postemergence herbicidal rating ZEAMX (ZEAMX Corn, Field [12]; 0.008 kg/ha): 7.5
Postemergence herbicidal rating ZEAMX (ZEAMX Corn, Field [12]; 0.016 kg/ha): 7.5
Postemergence herbicidal rating ZEAMX (ZEAMX Corn, Field [12]; 0.032 kg/ha): 8.0
Postemergence herbicidal rating ZEAMX (ZEAMX Corn, Field [12]; 0.062 kg/ha): 8.5
ABUTH herbicidal rating (ABUTH Velvetleaf [13]; rate 0.016 kg/ha): 0.0
ABUTH herbicidal rating (ABUTH Velvetleaf [13]; rate 0.032 kg/ha): 1.5
ABUTH herbicidal rating (ABUTH Velvetleaf [13]; rate 0.062 kg/ha): 3.0
ABUTH herbicidal rating (ABUTH Velvetleaf [13]; rate 0.125 kg/ha): 8.0
AMBEL herbicidal rating (AMBEL Ragweed, Common [14]; rate 0.016 kg/ha): 0.0
AMBEL herbicidal rating (AMBEL Ragweed, Common [14]; rate 0.032 kg/ha): 2.0
AMBEL herbicidal rating (AMBEL Ragweed, Common [14]; rate 0.062 kg/ha): 2.0
AMBEL herbicidal rating (AMBEL Ragweed, Common [14]; rate 0.125 kg/ha): 5.0
CASOB herbicidal rating (CASOB Sicklepod [15]; rate 0.016 kg/ha): 0.0
CASOB herbicidal rating (CASOB Sicklepod [15]; rate 0.032 kg/ha): 0.0
CASOB herbicidal rating (CASOB Sicklepod [15]; rate 0.062 kg/ha): 0.0
CASOB herbicidal rating (CASOB Sicklepod [15]; rate 0.125 kg/ha): 0.0
CHEAL herbicidal rating ([16]; rate 0.016 kg/ha): 0.0
CHEAL herbicidal rating ([16]; rate 0.032 kg/ha): 6.5
CHEAL herbicidal rating ([16]; rate 0.062 kg/ha): 9.0
CHEAL herbicidal rating ([16]; rate 0.125 kg/ha): 9.0
ECHCG herbicidal rating (ECHOG Barnyardgrass [17]; rate 0.016 kg/ha): 0.0
ECHCG herbicidal rating (ECHOG Barnyardgrass [17]; rate 0.032 kg/ha): 0.0
ECHCG herbicidal rating (ECHOG Barnyardgrass [17]; rate 0.062 kg/ha): 0.0
ECHCG herbicidal rating (ECHOG Barnyardgrass [17]; rate 0.125 kg/ha): 0.0
GALAP herbicidal rating (GALAP Galium [18]; rate 0.016 kg/ha): 0.0
GALAP herbicidal rating (GALAP Galium [18]; rate 0.032 kg/ha): 0.0
GALAP herbicidal rating (GALAP Galium [18]; rate 0.062 kg/ha): 0.0
GALAP herbicidal rating (GALAP Galium [18]; rate 0.125 kg/ha): 0.0
IPOHE herbicidal rating ([19]; rate 0.016 kg/ha): 0.0
IPOHE herbicidal rating ([19]; rate 0.032 kg/ha): 0.0
IPOHE herbicidal rating ([19]; rate 0.062 kg/ha): 0.0
IPOHE herbicidal rating ([19]; rate 0.125 kg/ha): 4.0
SETVI herbicidal rating (SETVI Foxtail, Green [20]; rate 0.016 kg/ha): 0.0
SETVI herbicidal rating (SETVI Foxtail, Green [20]; rate 0.032 kg/ha): 0.0
SETVI herbicidal rating (SETVI Foxtail, Green [20]; rate 0.062 kg/ha): 0.0
SETVI herbicidal rating (SETVI Foxtail, Green [20]; rate 0.125 kg/ha): 3.0
GLXMAW herbicidal rating (GLXMAW Soybean, Williams [21]; rate 0.016 kg/ha): 0.0
GLXMAW herbicidal rating (GLXMAW Soybean, Williams [21]; rate 0.032 kg/ha): 0.0
GLXMAW herbicidal rating (GLXMAW Soybean, Williams [21]; rate 0.062 kg/ha): 0.0
GLXMAW herbicidal rating (GLXMAW Soybean, Williams [21]; rate 0.125 kg/ha): 0.0
TRZAWR herbicidal rating ([22]; rate 0.016 kg/ha): 0.0
TRZAWR herbicidal rating ([22]; rate 0.032 kg/ha): 0.0
TRZAWR herbicidal rating ([22]; rate 0.062 kg/ha): 0.0
TRZAWR herbicidal rating ([22]; rate 0.125 kg/ha): 0.0
ORYSAT herbicidal rating (ORYSAT Rice, Tebonnet [23]; rate 0.016 kg/ha): 0.0
ORYSAT herbicidal rating (ORYSAT Rice, Tebonnet [23]; rate 0.032 kg/ha): 0.0
ORYSAT herbicidal rating (ORYSAT Rice, Tebonnet [23]; rate 0.062 kg/ha): 1.0
ORYSAT herbicidal rating (ORYSAT Rice, Tebonnet [23]; rate 0.125 kg/ha): 1.5
ZEAMX herbicidal rating (ZEAMX Corn, Field [24]; rate 0.016 kg/ha): 0.0
ZEAMX herbicidal rating (ZEAMX Corn, Field [24]; rate 0.032 kg/ha): 0.0
ZEAMX herbicidal rating (ZEAMX Corn, Field [24]; rate 0.062 kg/ha): 0.0
ZEAMX herbicidal rating (ZEAMX Corn, Field [24]; rate 0.125 kg/ha): 0.0
